From ChEMBL document CHEMBL4834415, “Distinct Lugdunins from a New Efficient Synthesis and Broad Exploitation of Its MRSA-Antimicrobial Structure” (2021) come the findings set out here.

Values after ≈ are worked out from the molar mass of the structure shown.

The subject of the experiment is Staphylococcus aureus. As to the kind of experiment: Antibacterial activity against methicillin-resistant Staphylococcus aureus USA300 LAC assessed as reduction in bacterial growth incubated for 21 hrs by broth dilution method. The format is functional.
Consider `CC(C)C[C@H]1NC(=O)[C@H](Cc2cccs2)NC(=O)[C@@H](C(C)C)NC(=O)[C@@H]2CSC(N2)[C@H](C(C)C)NC(=O)[C@@H](C(C)C)NC(=O)[C@H](C(C)C)NC1=O`, for which the MIC is 134 µM (≈ 100 µg/mL).
For the compound `CC(C)[C@@H]1NC(=O)[C@@H](Cc2c[nH]c3ccccc23)NC(=O)[C@H](C(C)C)NC(=O)C2(CC2)NC(=O)[C@H](Cc2c[nH]c3ccccc23)NC(=O)[C@@H](C(C)C)NC(=O)[C@@H]2CSC1N2`, the MIC is 119 µM (≈ 100 µg/mL).
Take `CC(C)[C@@H]1NC(=O)[C@@H](Cc2c[nH]c3ccccc23)NC(=O)[C@H](C(C)C)NC(=O)[C@H]2CCCN2C(=O)[C@H](Cc2c[nH]c3ccccc23)NC(=O)[C@@H](C(C)C)NC(=O)[C@@H]2CSC1N2`: the MIC was 117 µM (≈ 100 µg/mL).
As to `CC(C)C[C@H]1NC(=O)[C@H](Cc2cccc3ccccc23)NC(=O)[C@@H](C(C)C)NC(=O)[C@@H]2CSC(N2)[C@H](C(C)C)NC(=O)[C@@H](C(C)C)NC(=O)[C@H](C(C)C)NC1=O`, the MIC worked out at 7.9 µM (≈ 6.27 µg/mL).
For the compound `C=CC[C@H]1NC(=O)[C@H](Cc2c[nH]c3ccccc23)NC(=O)[C@@H](C(C)C)NC(=O)[C@@H]2CSC(N2)[C@H](C(C)C)NC(=O)[C@@H](Cc2c[nH]c3ccccc23)NC(=O)[C@H](C(C)C)NC1=O`, the MIC came to 58.6 µM (≈ 50 µg/mL).
In the case of `CC(C)C[C@H]1NC(=O)[C@H](Cc2cscn2)NC(=O)[C@@H](C(C)C)NC(=O)[C@@H]2CSC(N2)[C@H](C(C)C)NC(=O)[C@@H](C(C)C)NC(=O)[C@H](C(C)C)NC1=O`, the MIC was 133 µM (≈ 100 µg/mL).
As for `CC(C)C[C@H]1NC(=O)[C@H](Cc2cccc([N+](=O)[O-])c2)NC(=O)[C@@H](C(C)C)NC(=O)[C@@H]2CSC(N2)[C@H](C(C)C)NC(=O)[C@@H](C(C)C)NC(=O)[C@H](C(C)C)NC1=O`, the MIC was 127 µM (≈ 100 µg/mL).
`CCC[C@H]1NC(=O)[C@@H]2CSC(N2)[C@H](C(C)C)NC(=O)[C@@H](Cc2c[nH]c3ccccc23)NC(=O)[C@H](C(C)C)NC(=O)[C@@H](CC(C)C)NC(=O)[C@H](Cc2c[nH]c3ccccc23)NC1=O`: the MIC stood at 7.2 µM (≈ 6.26 µg/mL).
For `CC[C@@H](C)[C@H]1NC(=O)[C@H](Cc2c[nH]c3ccccc23)NC(=O)[C@@H](C(C)C)NC(=O)[C@@H]2CSC(N2)[C@H](C(C)C)NC(=O)[C@@H](C(C)C)NC(=O)[C@H](C(C)C)NC1=O` the value was 14.4 µM (≈ 11.3 µg/mL).
